Structures are written as SMILES.

This experiment has as its system C3H10T1/2 cells. In words: C3H assay: differentiation of C3H10T1/2 cells by mSHH, measurement of alkaline phosphatase. Particulars: Mus musculus, C3H 10T1/2; C3H10T1/2 cells stimulated with mSHH for 72 hours; alkaline phosphatase activity; read-out: IC50 Ranges. Type of experiment: cell-based, mouse.

Turning to `C[C@H]1CC(c2c[nH]c3ncccc23)CCN1S(=O)(=O)C1CN(C(=O)OC(C)(C)C)C1` (mixture of isomers) [Compound 45, tert-butyl 3-[(2R)-2-methyl-4-(1H-pyrrolo[2,3-b]pyridin-3-yl)piperidin-1-yl]sulfonylaze-tidine-1-carboxylate], the IC50 (as a rule, the concentration at which inhibition is half-maximal) fell in the range of 0.01 to 0.1 µM.
The same measure for `CN(C)CC(C)(C)OC(=O)N1CCC(S(=O)(=O)N2CCC(c3c[nH]c4ncccc34)CC2)C1` (racemic) [Compound 147, [1-(dimethylamino)-2-methylpropan-2-yl]3-[4-(1H-pyrrolo[2,3-b]pyridin-3-yl)piperidin-1-yl]sulfonylpyrr olidine-1-carboxylate]: 0.01 to 0.1 µM; for `CC(C)C(CO)NC(=O)N1CCC(S(=O)(=O)N2CCC(c3c[nH]c4ncccc34)CC2)C1` (racemic) [Compound 149, N-(1-hydroxy-3-methylbutan-2-yl)-3-[4-(1H-pyrrolo[2,3-b]pyridin-3-yl)piperidin-1-yl]sulfonylpyrr olidine-1-carboxamide]: 0.01 to 0.1 µM.
For `CC(C)(C)OC(=O)N1CCC(S(=O)(=O)N2CCC(c3c[nH]c4ncccc34)CC2)C1` (racemic) [Compound 150, tert-butyl 3-[4-(1H-pyrrolo[2,3-b]pyridin-3-yl)piperidin-1-yl]sulfonylpyrr olidine-1-carboxylate], the IC50 was 0.01 to 0.1 µM.
With `O=S(=O)(C1CCN(c2ccccn2)C1)N1CCC(c2c[nH]c3ncccc23)CC1` (racemic) [Compound 244, 3-[1-(1-pyridin-2-ylpyrrolidin-3-yl)sulfonylpiper-idin-4-yl]-1H-pyrrolo[2,3-b]pyridine], the 50% inhibitory concentration (IC50) lay within 0.1 to 1 µM.
The same measure for `O=S(=O)(C1CCNC1)N1CCC(c2c[nH]c3ncccc23)CC1` (racemic) [Compound 249, 3-[1-(pyrrolidin-3-yl)sulfonylpiper-idin-4-yl]-1H-pyrrolo[2,3-b]pyridine]: 1 to 10 µM.
In the case of `CC(C)(C)OC(=O)N1CCC(S(=O)(=O)N2CCC(c3ccncc3)CC2)C1` (racemic) [Compound 269, tert-butyl 3-(4-pyridin-4-ylpiperidin-1-yl)sulfonylpyrrolidine-1-carboxylate], the IC50 was in the range of 0.1 to 1 µM.
The same measure for `CN(C(=O)N1CCC(S(=O)(=O)N2CCC(c3ccncc3)CC2)C1)C(C)(C)C` (racemic) [Compound 271, N-tert-butyl-N-methyl-3-(4-pyridin-4-ylpiperidin-1-yl)sulfonylpyrr olidine-1-carboxamide]: 0.1 to 1 µM; for `CC(C)[C@H](CO)NC(=O)N1CC(S(=O)(=O)N2CCC(c3ccc(F)cc3)CC2)C1` (racemic) [Compound 344, 3-[4-(4-fluorophenyl)piperidin-1-yl]sulfonyl-N-[1-hydroxy-3-methylbutan-2-yl] azetidine-1-carboxamide]: 0.1 to 1 µM; for `CC(C)C(CO)NC(=O)N1CC(S(=O)(=O)N2CCC(c3ccc(C#N)cc3)CC2)C1` (racemic) [Compound 348, 3-[4-(4-cyanophenyl)piperidin-1-yl]sulfonyl-N-[1-hydroxy-3-methylbutan-2-yl]azetidine-1-carboxamide]: 0.1 to 1 µM.
Turning to `CC(C)(C)OC(=O)N1CC(S(=O)(=O)N2CCC(c3c[nH]c4ncc(F)cc34)CC2)C1` [Compound 1, tert-butyl 3[4-(5-fluoro-1H-pyrrolo[2,3-b]pyridin-3-yl)piperidin-1-yl]sulfonylaze-tidine-1-carboxylate], the 50% inhibitory concentration (IC50) was 0.1 to 1 µM.
The same measure for `Cc1cnc2[nH]cc(C3CCN(S(=O)(=O)C4CN(C(=O)OC(C)(C)C)C4)CC3)c2c1` [Compound 2, tert-butyl 3-[4-(5-methyl-1H-pyrrolo[2,3-b]pyridin-3-yl)piperidin-1-yl] sulfonylaze-tidine-1-carboxylate]: 1 to 10 µM; for `CC(C)(C)OC(=O)N1CC(S(=O)(=O)N2CCC(c3cncn3Cc3ccccc3)CC2)C1` [Compound 3, tert-butyl 3-[4-(3-benzylimidazol-4-yl)piperidin-1-yl]sulfonylaze-tidine-1-carboxylate]: 0.1 to 1 µM.
For `CC(C)(C)OC(=O)N1CCn2c(C3CCN(S(=O)(=O)C4CN(C(=O)OC(C)(C)C)C4)CC3)cnc2C1` [Compound 4, tert-butyl 3-[1-[1-[(2-methylpropan-2-yl)oxycarbonyl]azetidin-3-yl]sulfonylpiper-idin-4-yl]-6,8-dihydro-5H-imidazo[1,2-a]pyrazine-7-carboxylate], the half-maximal inhibitory concentration (IC50) fell in the range of 1 to 10 µM.
`CC(C)(C)OC(=O)N1CC(S(=O)(=O)N2CCC(c3cnc4n3CCC4)CC2)C1` [Compound 5, tert-butyl 3-[4-(6,7-dihydro-5H-pyrrolo[1,2-a]imidazol-3-yl)piperidin-1-yl]sulfonylaze-tidine-1-carboxylate]: the IC50 fell in the range of 1 to 10 µM.
The same measure for `COc1ccc(C2CCN(S(=O)(=O)C3CN(C(=O)OC(C)(C)C)C3)CC2)cc1` [Compound 6, tert-butyl 3-[4-(4-methoxyphenyl)piperidin-1-yl]sulfonylaze-tidine-1-carboxylate]: 0.1 to 1 µM; for `CC(C)(C)OC(=O)N1CCC(S(=O)(=O)N2CCC(c3ccnc4[nH]ccc34)CC2)CC1` [Compound 7, tert-butyl 4-[4-(1H-pyrrolo[2,3-b]pyridin-4-yl)piperidin-1-yl]sulfonylpiper-idine-1-carboxylate]: 0.1 to 1 µM; for `Cc1ccc(S(=O)(=O)n2ccc3c(C4CCN(S(=O)(=O)C5CCN(C(=O)OC(C)(C)C)CC5)CC4)ccnc32)cc1` [Compound 8, tert-butyl 4-[4-[1-(4-methylphenyl)-sulfonylpyrrolo[2,3-b]pyridin-4-yl]piperidin-1-yl]sulfonylpiper-idine-1-carboxylate]: 0.01 to 0.1 µM.
The same measure for `Cc1ccc(C2CCN(S(=O)(=O)C3CCN(C(=O)OC(C)(C)C)CC3)CC2)c(C)c1` [Compound 9, tert-butyl 4-[4-(2,4-dimethylphenyl)piperidin-1-yl]sulfonylpiper-idine-1-carboxylate]: 1 to 10 µM; for `CC(C)(C)OC(=O)N1CCC(S(=O)(=O)N2CCC(c3ncnc4[nH]ccc34)CC2)CC1` [Compound 10, tert-butyl 4-[4-(7H-pyrrolo[2,3-d]pyrimidin-4-yl)piperidin-1-yl]sulfonylpiper-idine-1-carboxylate]: 1 to 10 µM; for `CC(C)(C)OC(=O)N1CCC(S(=O)(=O)N2CCC(c3ccnc4ccccc34)CC2)CC1` [Compound 11, tert-butyl 4-(4-quinolin-4-ylpiperidin-1-yl)sulfonylpiper-idine-1-carboxylate]: 0.1 to 1 µM.
The same measure for `Cc1ccc(S(=O)(=O)n2ccc3c(C4CCN(S(=O)(=O)C5CCN(C(=O)OC(C)(C)C)CC5)CC4)ncnc32)cc1` [Compound 12, tert-butyl 4-[4-[7-(4-methylphenyl)-sulfonylpyrrolo[2,3-d]pyrimidin-4-yl]piperidin-1-yl]sulfonylpiper-idine-1-carboxylate]: 0.1 to 1 µM; for `COc1ccc(C2CCN(S(=O)(=O)C3CCN(C(=O)OC(C)(C)C)CC3)CC2)cc1` [Compound 13, tert-butyl 4-[4-(4-methoxyphenyl)piperidin-1-yl]sulfonylpiper-idine-1-carboxylate]: 0.1 to 1 µM; for `CC(C)(C)OC(=O)N1CCC(S(=O)(=O)N2CCC(c3ccccc3)CC2)CC1` [Compound 14, tert-butyl 4-(4-phenylpiperidin-1-yl)sulfonylpiper-idine-1-carboxylate]: 0.1 to 1 µM.
Take `COC(=O)c1cnc2[nH]cc(C3CCN(S(=O)(=O)C4CN(C(=O)OC(C)(C)C)C4)CC3)c2c1` [Compound 15, methyl 3-[1-[1-[(2-methylpropan-2-yl)oxycarbonyl]azetidin-3-yl]sulfonylpiper-idin-4-yl]-1H-pyrrolo[2,3-b]pyridine-5-carboxylate]: the IC50 fell in the range of 1 to 10 µM.
Turning to `CC(C)(C)OC(=O)N1CC(S(=O)(=O)N2CCC(c3csc4cccnc34)CC2)C1` [Compound 17, tert-butyl 3-(4-thieno[3,2-b]pyridin-3-ylpiperidin-1-yl)sulfonylaze-tidine-1-carboxylate], the 50% inhibitory concentration (IC50) was in the range of 0.01 to 0.1 µM.
With `CC(C)(C)OC(=O)N1CCC(S(=O)(=O)N2CCC(c3csc4cccnc34)CC2)CC1` [Compound 18, tert-butyl 4-(4-thieno[3,2-b]pyridin-3-ylpiperidin-1-yl)sulfonylpiper-idine-1-carboxylate] the figure was 0.01 to 0.1 µM; with `CC(C)(C)OC(=O)N1CCC(S(=O)(=O)N2CCC(c3c[nH]c4ncccc34)CC2)CC1` [Compound 19, tert-butyl 4-[4-(1H-pyrrolo[2,3-b]pyridin-3-yl)piperidin-1-yl]sulfonylpiper-idine-1-carboxylate], 0.01 to 0.1 µM.
With `CC(C)(C)OC(=O)N1CCC(S(=O)(=O)N2CCC(C3CCOCC3)CC2)CC1` [Compound 20, tert-butyl 4-[4-(oxan-4-yl)piperidin-1-yl]sulfonylpiper-idine-1-carboxylate] the figure was 1 to 10 µM.
The same measure for `O=C(Nc1ccccc1)N1CCC(S(=O)(=O)N2CCC(c3ccncc3)CC2)CC1` [Compound 21, N-phenyl-4-(4-pyridin-4-ylpiperidin-1-yl)sulfonylpiper-idine-1-carboxamide]: 1 to 10 µM.
With `CC(C)(C)OC(=O)N1CC(S(=O)(=O)N2CCC(c3ccncc3)CC2)C1` [Compound 22, tert-butyl 3-(4-pyridin-4-ylpiperidin-1-yl)sulfonylaze-tidine-1-carboxylate], the IC50 was in the range of 0.1 to 1 µM.
Take `CC(C)(C)OC(=O)N1CCC(S(=O)(=O)N2CCC(c3ccncc3)CC2)CC1` [Compound 23, tert-butyl 4-(4-pyridin-4-ylpiperidin-1-yl)sulfonylpiper-idine-1-carboxylate]: the IC50 is 0.1 to 1 µM.
In the case of `CC(C)C(CO)NC(=O)N1CC(S(=O)(=O)N2CCC(c3ccncc3)CC2)C1` (stereo not shown) [Compound 24, 3-(4-pyridin-4-ylpiperidin-1-yl)sulfonyl-N-[1-hydroxy-3-methylbutan-2-yl]azetidine-1-carboxamide], the IC50 fell in the range of 0.1 to 1 µM.
With `Cc1noc(C)c1NC(=O)N1CC(S(=O)(=O)N2CCC(c3cccnn3)CC2)C1` [Compound 25, N-(3,5-dimethyl-1,2-oxazol-4-yl)-3-(4-pyridazin-3-ylpiperidin-1-yl)sulfonylaze-tidine-1-carboxamide] the figure was 1 to 10 µM.

Values taken from patent US10961238B2, “Modulators of hedgehog (Hh) signaling pathway” (E-THERAPEUTICS PLC, priority 2016, dated 2021).
